Reference: patent US20140072624A1, “UNIT DOSE FORM FOR ORAL ADMINISTRATION” (THRESHOLD PHARMACEUTICALS, INC., priority 2011, published 2014)
Like-named read-outs stand apart in the source and are kept apart here.

How the values were obtained:
[1] = Pharmacokinetics of TH-302 in rats after a single IV dose; type: in vivo, Sprague-Dawley rats; conditions: rat; for Tmax: Sprague-Dawley, plasma
[2] = Pharmacokinetics of TH-302 in rats after a single oral (PO) dose; type: in vivo, Sprague-Dawley rats
Description: TH-302 (1-methyl-2-nitro-1H-imidazole-5-yl) N,N′-bis(2-bromoethyl) diamidophosphate, m.w.=449) that was about 96% pure based on high performance liquid chromatography (HPLC) analysis, was used. Male Sprague-Dawley rats (n=3 per time point) were administered a single oral dose of 100 mg/kg TH-302 (see, Table 1 and FIG. 1).

[3] = Single dose pharmacokinetics of TH-302 after a 30-min intravenous infusion in rats; type: in vivo; conditions: for Vd: read-out: Vss
[4] = male Sprague-Dawley rats, single oral dose 100 mg/kg in normal saline
[5] = rat, PO, 100 mg/kg, composite data, n = 3 per time point
[6] = Sprague-Dawley, rat, plasma, female rats, 50 mg/kg, 30-min IV infusion
[7] = Sprague-Dawley, rat, plasma, female rats, 100 mg/kg, 30-min IV infusion
[8] = Sprague-Dawley, rat, plasma, male rats, 50 mg/kg, 30-min IV infusion
[9] = Sprague-Dawley, rat, plasma, male rats, 100 mg/kg, 30-min IV infusion
[10] = Sprague-Dawley, rat, plasma, male rats, 200 mg/kg, 30-min IV infusion
[11] = male rats, 100 mg/kg, 30-min IV infusion
[12] = rat, plasma, female rats, 200 mg/kg, 30-min IV infusion

Question: With `Cn1c(COP(=O)(NCCBr)NCCBr)cnc1[N+](=O)[O-]` [TH-302] as the compound, how does the Tmax ([1]; 1 mg/kg, n = 3, mean ± S.D.) read?
Answer: 1.98 min

Question: What about the Tmax ([1]; 5 mg/kg, n = 2, mean ± S.D.) of the same compound?
Answer: 1.98 min

Question: What about the Tmax ([1]; 20 mg/kg, n = 3, mean ± S.D.) of the same compound?
Answer: 1.98 min

Question: What about the Tmax ([1]; 50 mg/kg, n = 3, mean ± S.D.) of the same compound?
Answer: 1.98 min

Question: What about the “AUC (total area under the concentration-time curve from zero to infinity)” value ([1]; 1 mg/kg, n = 3, mean ± S.D.) of the same compound?
Answer: 0.221 ± 0.054 μg-

Question: What about the Cmax ([1]; 1 mg/kg, n = 3, mean ± S.D.) of the same compound?
Answer: 0.802 ± 0.165 μg/m

Question: And the “AUC (total area under the concentration-time curve from zero to infinity)” value ([1]; 5 mg/kg, n = 2)?
Answer: 0.826 μg-

Question: What about the Cmax ([1]; 5 mg/kg, n = 2) of the same compound?
Answer: 3.82 μg/m

Question: And the “AUC (total area under the concentration-time curve from zero to infinity)” value ([1]; 20 mg/kg, n = 3, mean ± S.D.)?
Answer: 3.30 ± 0.36 μg-

Question: And the Cmax ([1]; 20 mg/kg, n = 3, mean ± S.D.)?
Answer: 13.5 ± 1.52 μg/m

Question: What about the “AUC (total area under the concentration-time curve from zero to infinity)” value ([1]; 50 mg/kg, n = 3, mean ± S.D.) of the same compound?
Answer: 8.47 ± 0.02 μg-

Question: And the Cl ([1]; 50 mg/kg, n = 3, mean ± S.D.)?
Answer: 98.5 ± 4.17 mL/min/kg

Question: What about the Cmax ([1]; 50 mg/kg, n = 3, mean ± S.D.) of the same compound?
Answer: 35.5 ± 3.01 μg/m

Question: And the Vss ([1]; 50 mg/kg, n = 3, mean ± S.D.)?
Answer: 1.67 ± 0.04 L/kg

Question: And the “time of mean peak plasma concentration (first sampled time point)” value ([2]; male Sprague-Dawley rats, single oral dose 100 mg/kg)?
Answer: 15 min

Question: And the “mean peak plasma concentration” value [2, 4]?
Answer: 15.8 µg/mL

Question: And the “time of mean peak plasma concentration (first sampling time point)” value [2, 4]?
Answer: 0.25 h

Question: What about the “oral absorption (in words)” value ([2]; male Sprague-Dawley rats, single oral dose 100 mg/kg, 100 mg/kg) of the same compound?
Answer: rapidly and well absorbed

Question: What about the t1/2 ([2]; male rat, PO, 100 mg/kg, composite data, n = 3 per time point) of the same compound?
Answer: 96 min

Question: What about the Tmax ([2]; male, Sprague-Dawley, plasma, rat, PO, 100 mg/kg, composite data, n = 3 per time point) of the same compound?
Answer: 15 min

Question: And the bioavailability ([2]; male, Sprague-Dawley, rat, plasma, oral, 100 mg/kg, male rat, PO, 100 mg/kg vs 100 mg/kg 30 minute IV infusion, read-out: Oral F (absolute oral bioavailability))?
Answer: 77.3%

Question: And the “AUC (total area under the concentration-time curve from zero to infinity)” value [2, 5]?
Answer: 13.1 μg-

Question: What about the Cmax [2, 5] of the same compound?
Answer: 15.8 μg/m

Question: And the AUC ([2]; rat, plasma, male Sprague-Dawley rats, single oral dose 100 mg/kg, read-out: mean area under the curve (AUC))?
Answer: 13100 ng·h/mL

Question: And the Cmax [3, 6]?
Answer: 14100 ng/mL

Question: And the Tmax [3, 6]?
Answer: 31 min

Question: What about the clearance [3, 6] of the same compound?
Answer: 115 mL/min/kg

Question: What about the Vd [3, 6] of the same compound?
Answer: 2.81 L/kg

Question: And the Cmax [3, 7]?
Answer: 30000 ng/mL

Question: What about the Tmax [3, 7] of the same compound?
Answer: 30 min

Question: What about the clearance [3, 7] of the same compound?
Answer: 103 mL/min/kg

Question: What about the Vd [3, 7] of the same compound?
Answer: 2.59 L/kg

Question: What about the Vd ([3]; Sprague-Dawley, rat, plasma, female rats, 200 mg/kg, 30-min IV infusion) of the same compound?
Answer: 2.35 L/kg

Question: And the Cmax [3, 8]?
Answer: 15600 ng/mL

Question: What about the Tmax [3, 8] of the same compound?
Answer: 31 min

Question: And the clearance [3, 8]?
Answer: 104 mL/min/kg

Question: What about the Vd [3, 8] of the same compound?
Answer: 2.57 L/kg

Question: What about the Tmax [3, 9] of the same compound?
Answer: 33 min

Question: What about the clearance [3, 9] of the same compound?
Answer: 98.3 mL/min/kg

Question: And the Cmax ([3]; Sprague-Dawley, rat, plasma, male rats, 100 mg/kg, 30-min IV infusion (end of infusion))?
Answer: 30900 ng/mL

Question: What about the Vd [3, 9] of the same compound?
Answer: 2.59 L/kg

Question: And the Cmax [3, 10]?
Answer: 62500 ng/mL

Question: What about the Tmax [3, 10] of the same compound?
Answer: 33 min

Question: And the clearance [3, 10]?
Answer: 89.7 mL/min/kg

Question: What about the Vd [3, 10] of the same compound?
Answer: 2.51 L/kg

Question: And the AUC ([3]; female, Sprague-Dawley, rat, plasma, iv, 50 mg/kg, female rats, 50 mg/kg, 30-min IV infusion, read-out: AUC)?
Answer: 7330 ng·h/mL

Question: And the half-life ([3]; female, Sprague-Dawley, rat, plasma, iv, 50 mg/kg, female rats, 50 mg/kg, 30-min IV infusion, read-out: Half-Life (converted))?
Answer: 19.1 min

Question: What about the AUC ([3]; female, Sprague-Dawley, rat, plasma, iv, 100 mg/kg, female rats, 100 mg/kg, 30-min IV infusion, read-out: AUC) of the same compound?
Answer: 16100 ng·h/mL

Question: What about the half-life ([3]; female, Sprague-Dawley, rat, plasma, iv, 100 mg/kg, female rats, 100 mg/kg, 30-min IV infusion, read-out: Half-Life (converted)) of the same compound?
Answer: 17.2 min

Question: What about the AUC ([3]; female, rat, plasma, iv, 200 mg/kg, female rats, 200 mg/kg, 30-min IV infusion, read-out: AUC) of the same compound?
Answer: 40600 ng·h/mL

Question: And the half-life ([3]; female, rat, plasma, iv, 200 mg/kg, female rats, 200 mg/kg, 30-min IV infusion, read-out: Half-Life (converted))?
Answer: 23.4 min

Question: What about the AUC [3, 11] of the same compound?
Answer: 17000 ng·h/mL

Question: What about the half-life [3, 11] of the same compound?
Answer: 16.1 min

Question: What about the AUC ([3]; male, Sprague-Dawley, rat, plasma, iv, 50 mg/kg, male rats, 50 mg/kg, 30-min IV infusion, read-out: AUC) of the same compound?
Answer: 7940 ng·h/mL

Question: What about the half-life ([3]; male, Sprague-Dawley, rat, plasma, iv, 50 mg/kg, male rats, 50 mg/kg, 30-min IV infusion, read-out: Half-Life (converted)) of the same compound?
Answer: 20 min

Question: What about the AUC ([3]; male, Sprague-Dawley, rat, plasma, iv, 100 mg/kg, male rats, 100 mg/kg, 30-min IV infusion, read-out: AUC) of the same compound?
Answer: 17100 ng·h/mL

Question: What about the half-life ([3]; male, Sprague-Dawley, rat, plasma, iv, 100 mg/kg, male rats, 100 mg/kg, 30-min IV infusion, read-out: Half-Life (converted)) of the same compound?
Answer: 16.2 min

Question: And the AUC ([3]; male, Sprague-Dawley, rat, plasma, iv, 200 mg/kg, male rats, 200 mg/kg, 30-min IV infusion, read-out: AUC)?
Answer: 37600 ng·h/mL

Question: What about the half-life ([3]; male, Sprague-Dawley, rat, plasma, iv, 200 mg/kg, male rats, 200 mg/kg, 30-min IV infusion, read-out: Half-Life (converted)) of the same compound?
Answer: 19.4 min

Question: And the Cmax [3, 12]?
Answer: 71100 ng/mL

Question: And the Tmax [3, 12]?
Answer: 41 min

Question: What about the clearance [3, 12] of the same compound?
Answer: 80.7 mL/min/kg
